Assay results from patent US20180310564A1, “Mesoionic Compound” (Nippon Kayaku Kabushiki Kaisha, priority 2015, published 2018).
Where a name gives a salt, the structure may show the parent alone.

Columns and labels:
Type in all cases: in vivo
[1] = tested on: Inedorooimushi (Oulema oryzae); experiment: Test (pot test) for controlling inedorooimushi; conditions: larvae released 20 days after treatment, 2 days after release; for mortality at 500 g/ha: 500 g/ha as wettable powder at rice roots
Method: The roots of five sampled rice seedlings were washed with water. The wettable powder prepared in accordance with Formulation Example 2 described above was wrapped in the roots to be planted in a Wagner pot of 1/10000 a. After 20 days from the treatment, 3 larvae of inedorooimushi in the late instar larva were released per strain and reared in a plastic greenhouse with a room temperature set at 25° C. On 2 days after the releasing of the insects, the mortality of the insect was calculated.

[2] = tested on: Brown Planthopper (Nilaparvata lugens); experiment: Test (root dipping) for controlling brown planthopper; conditions: 120 h, root dipping, 5 days after treatment
Method: Ten sampled rice seedlings held with urethane in a glass cylinder having an inner diameter of 4.5 cm and a length of 14 cm were set up in a plastic cup containing 40 mL of chemical solution diluted to a desired concentration. After 2 days, 10 larvae of brown planthoppers in the third instar larva were released in the glass cylinder. The glass cylinder was covered with a lid of medicine paper and kept in a chamber at a constant temperature of 25° C. for rearing.

[3] = tested on: Southern Yellow thrips (Thrips palmi); experiment: Test (foliar spraying) for controlling southern yellow thrips; conditions: 3 days after treatment; for Mortality of Thrips palmi (%): foliar spraying; for mortality at 200 ppm: 72 h, foliar spraying on cucumber leaf, first instar larvae
Method: A cucumber leaf cut to a diameter of 1.5 cm was placed on cotton wool moistened with water. […] After air-drying, 5 larvae of southern yellow thrips in the first instar larva were released there. The sample with cotton wool was placed in a plastic cup, which was covered with a lid and kept in a chamber at a constant temperature of 25° C. for rearing.

[4] = tested on: Brown Winged Green Stink Bug (Plautia stali); experiment: Test (greenhouse test) for controlling brown winged green stink bug; conditions: 100 ppm sprayed on apple fruit; for Number of abnormal insects / Number of dead insects / Number of normal insects: 5 adults released 7 days after treatment, triple system, 4 days after release; for Total number of sheaths formed by stylet insertion: fruit stained with fuchsine after examination; for Proportion of abnormal insects and dead insects on 4 days after releasing insects (%): insects released 7 days after treatment
Method: Using a commercially available hand spray, a chemical solution diluted to a concentration of 100 ppm was sprayed onto an apple fruit (cultivar: Fuji). After air-drying, the apple fruit was placed in a plastic cup, which was allowed to stand still for a specified number of […] in a plastic greenhouse with a room temperature set at 25° C. and with the natural light shining thereon. On 7 days after the treatment, 5 adult brown winged green stink bugs (without distinction between male and female) were released onto the treated fruit. On 4 days after the release of insects, the numbers of death and abnormality were observed and recorded. Triple system. Also, the fruit after examination was immersed in an acidic 0.5% fuchsine solution for 30 minutes, and then washed with water to measure the total number of sapping scars.

[5] = tested on: Rice Stem Borer (Chilo suppressalis); experiment: Test (pot test) for controlling rice stem borer; conditions: 14 days after treatment; for Browning stem ratio (%): 500 g/ha as wettable powder (Formulation Example 2) at rice roots, hatchlings released after 4 days; for Ratio to untreated (%): browning stem ratio relative to untreated, 500 g/ha
Method: The roots of five sampled rice seedlings were washed with water. The wettable powder prepared in accordance with Formulation Example 2 described above was wrapped in the roots to be planted in a Wagner pot of 1/10000 a. After 4 days from the treatment, a total of […] of rice stem borer were released per strain and reared in a plastic greenhouse with a room temperature set at 25° C. On 14 days after the treatment, the ratio of browning stem of seedlings for each strain and the ratio to untreated ones were calculated. Double system.

[6] = tested on: Brown Planthopper (Nilaparvata lugens); experiment: Test (foliar dipping) for controlling brown planthopper; conditions: 120 h, rice seedlings dipped, 5 days after treatment; for mortality at 200 ppm: third instar larvae
Method: […] After air-drying, the rice seedlings held with urethane in a glass cylinder having an inner diameter of 4.5 cm and a length of 14 cm were set up in a plastic cup containing 40 mL of water. Larvae of brown planthoppers in the third instar larva were released there. The cylinder was covered with a lid of medicine paper and kept in a chamber at a constant temperature of 25° C. for rearing.

[7] = tested on: Cotton Aphid (Aphis gossypii); experiment: Test (foliar spraying) for controlling cotton aphid; conditions: 120 h, 5 days after treatment; for mortality at 200 ppm: foliar spraying on cucumber leaf
Method: A cucumber leaf cut to a diameter of 3.5 cm was placed on cotton wool moistened with water. Two adult cotton aphids were released there for offspring for 24 hours and the adult insects were then removed. […] After air-drying, the sample with cotton wool was placed in a plastic cup, which was covered with a lid and kept in a chamber at a constant temperature of 25° C. for rearing.

[8] = tested on: Rice Leaf Beetle (Oulema oryzae); experiment: Test (root dipping) for controlling rice leaf beetle; conditions: 4 days after treatment; for mortality at 1.6 ppm: root dipping of rice seedlings, late instar larvae released after 2 days
Method: Ten sampled rice seedlings held with urethane in a glass cylinder having an inner diameter of 4.5 cm and a length of 14 cm were set up in a plastic cup containing 40 mL of chemical solution diluted to a desired concentration. After 2 days, 4 larvae of rice leaf beetle in the late instar larva were released in the glass cylinder. The glass cylinder was covered with a lid of medicine paper and kept in a chamber at a constant temperature of 25° C. for rearing.

[9] = tested on: Brown Planthopper (Nilaparvata lugens); experiment: Residual effect test (field experiment) for brown planthopper
Method: The roots of five sampled rice seedlings were washed with water. Subsequently, 25 mg of the wettable powder prepared in accordance with Formulation Example 2 described above was wrapped in the roots. Each strain was made from the five seedlings. In outdoor artificial paddy fields made from wooden frames having a size of 60 cm by 90 cm, 10 strains were planted, respectively. The artificial paddy field was shielded by an insect screen with a mesh size of 1 mm, so that invasion of harmful insects from the outside was prevented. Into the test system, 40 to 100 adult brown planthoppers were released at fixed intervals so as to cause damage to the rice. On 16 to 51 days after the treatment, the numbers of surviving insects and dead insects were measured to calculate the density index. The density index was obtained from the following expression.

[10] = tested on: Diamondback Moth (Plutella xylostella); experiment: Test (foliar dipping) for controlling diamondback moth; conditions: 72 h, foliar dipping of cabbage leaf, third instar larvae, 3 days after treatment
Method: A cabbage leaf cut to a diameter of 5.0 cm was dipped in the diluent of the test compounds diluted to 200 ppm in an amount of 20 mL and air-dried. After air-drying, the cabbage leaf was placed in a plastic cup, and 10 larvae of diamondback moths in the third instar larva were released there. The cup was covered with a lid and kept in a chamber at a constant temperature of 25° C. for rearing.

[11] = After 16 days, 25 mg wettable powder (Formulation Example 2) at roots per strain, outdoor artificial paddy field
[12] = After 23 days, 25 mg wettable powder at roots per strain, artificial paddy field
[13] = After 30 days, 25 mg wettable powder at roots per strain, artificial paddy field
[14] = After 37 days, 25 mg wettable powder at roots per strain, artificial paddy field
[15] = After 44 days, 25 mg wettable powder at roots per strain, artificial paddy field
[16] = After 51 days, 25 mg wettable powder at roots per strain, artificial paddy field

Row | Structure (SMILES) | mortality at 125 g/ha [1] [%] | mortality at 250 g/ha [1] [%] | mortality at 500 g/ha [1] [%] | mortality at 200 ppm [3] [%] | Number of abnormal insects [4] | Number of dead insects [4] | Number of normal insects [4] | Total number of sheaths formed by stylet insertion [4] | Proportion of abnormal insects and dead insects on 4 days after releasing insects (%) [4] [%] | Browning stem ratio (%) [5] [%] | Ratio to untreated (%) [5] [%] | mortality at 1.6 ppm [8] [%] | Density index of Nilaparvata lugens [9, 11] | Density index of Nilaparvata lugens [9, 12] | Density index of Nilaparvata lugens [9, 13] | Density index of Nilaparvata lugens [9, 14] | Density index of Nilaparvata lugens [9, 15] | Density index of Nilaparvata lugens [9, 16] | mortality at 200 ppm [10] [%] | mortality at 200 ppm [6] [%] | further results
1 | O=c1c(-c2cccc(C(F)(F)F)c2)c([O-])[n+](Cc2cncnc2)c2ccccn12 [Triflumezopyrim, reference compound] | 16.7 | 50 | 66.7 | 100 | 5 | 4 | 6 | 10 | 60.0 | 40 | 49 | 0 | 2.5 | 5.4 | 45.1 | 56.7 | 63.9 | 92.2 |  |  | mortality at 0.05 ppm ([2]; 0.05 ppm): 0%; mortality at 0.1 ppm ([2]; 0.1 ppm): 70%; mortality at 0.2 ppm ([2]; 0.2 ppm): 70%; mortality at 0.4 ppm ([2]; 0.4 ppm): 70%; mortality at 0.8 ppm ([2]; 0.8 ppm): 100%; Mortality of Thrips palmi (%) ([3]; 12.5 ppm): 0%; Mortality of Thrips palmi (%) ([3]; 50 ppm): 60%; mortality at 0.1 ppm ([6]; 0.1 ppm): 10%; mortality at 0.2 ppm ([6]; 0.2 ppm): 70%; mortality at 0.2 ppm ([7]; 0.20 ppm, foliar spraying): 0%; mortality at 0.39 ppm ([7]; 0.39 ppm, foliar spraying): 60%; mortality at 0.78 ppm ([7]; 0.78 ppm, foliar spraying): 85%
2 | N#CCC[n+]1c([O-])c(-c2cccc(OC(F)(F)F)c2)c(=O)n2ccccc21 [Compound 57, 1-(2-cyanoethyl)-2-hydroxy-4-oxo-3-(3-trifluoromethoxyphenyl)-4H-pyrido[1,2-a]pyrimidinium inner salt] |  |  |  | ≥ 80 |  |  |  |  |  | 0 | 0 |  | 0 | 0 | 25.4 | 50.4 | 33.0 | 80.7 | ≥ 80 | ≥ 80 | mortality at 200 ppm [7]: ≥ 80%
3 | N#CCC[n+]1c([O-])c(-c2cccc(C(F)(F)F)c2)c(=O)n2ccccc21 [Compound 51, 1-(2-cyanoethyl)-2-hydroxy-4-oxo-3-(3-trifluoromethylphenyl)-4H-pyrido[1,2-a]pyrimidinium inner salt] | 83.3 | 100 | 100 | ≥ 80 | 7 | 8 | 0 | 1 | 100 | 10 | 12 | 100 | 0 | 2.6 | 21.7 | 43.1 | 37.1 | 76.2 | ≥ 80 | ≥ 80 | mortality at 0.1 ppm ([7]; 0.1 ppm, foliar spraying): 100%; mortality at 0.8 ppm ([7]; 0.8 ppm, foliar spraying): 100%; mortality at 200 ppm [7]: ≥ 80%; mortality at 0.4 ppm ([8]; 96 h, 0.4 ppm, root dipping): 100%; mortality at 0.8 ppm ([8]; 96 h, 0.8 ppm, root dipping): 100%
